According to US10125135B2, “Chemical compounds” (AstraZeneca AB, priority 2016, dated 2018):

Tests used:
[1] = Human hepatocyte assay (metabolic stability); type: in vitro ADME; conditions: human hepatocytes, 37° C., 1.0×10^6 viable cells/mL; read-out: Clint (in vitro intrinsic clearance)
Experimental: The metabolic stability of compounds in human hepatocytes was assessed using the following protocol: • 1. Prepare 10 mM stock solutions of compound and control compounds in appropriate solvent (DMSO). Place incubation medium (L-15Medium) in a 37° C. water bath, and allow warming for at least 15 minutes prior to use. • 2. Add 80 μL of acetonitrile to each well of the 96-well deep well plate (quenching plate). • 3. In a new 96-well plate, dilute the 10 mM test compounds and the control compounds to 100 μM by combining 198 μL of acetonitrile and 2 μL of 10 mM stock. • 4. Remove a vial of cryopreserved (less than −150° C.) human hepatocytes (LiverPool™ 10 Donor Human hepatocytes obtained from Celsis IVT. Chicago, Ill. (Product No. S01205)) from storage, ensuring that vials remain at cryogenic temperatures until thawing process ensues. As quickly as possible, thaw the cells by placing the vial in a 37° C. water bath and gently shaking the vials. Vials should remain in water bath until all ice crystals have dissolved and are no longer visible. After thawing is completed, spray vial with 70% ethanol, transfer the vial to a bio-safety cabinet. • 5. Open the vial and pour the contents into the 50 mL conical tube containing thawing medium. Place the 50 mL conical tube into a centrifuge and spin at 100 g for 10 minutes. […] Using Cellometer® Vision, count cells and determine the viable cell density. Cells with poor viability (<80% viability) are not acceptable for use. Dilute cells with incubation medium to a working cell density of 1.0×10^6 viable cells/mL. • 7. Transfer 247.5 μL of hepatocytes into each well of a 96-well cell culture plate. Place the plate on Eppendorf Thermomixer Comfort plate shaker to allow the hepatocytes to warm for 10 minutes. • 8. Add 2.5 μL of 100 μM test compound or control compounds into an incubation well containing cells, mix to achieve a homogenous suspension at 0.5 min, which when achieved, will define the 0.5 min time point. At the 0.5 min time, transfer 20 μL incubated mixture to wells in a “Quenching plate” followed by vortexing. • 9. Incubate the plate at 37° C. at 900 rpm on an Eppendorf Thermomixer Comfort plate shaker. At 5, 15, 30, 45, 60, 80, 100 and 120 min, mix the incubation system and transfer samples of 20 μL incubated mixture at each time point to wells in a separate “Quenching plate” followed by vortexing. • 10. Centrifuge the quenching plates for 20 minutes at 4,000 rpm. 4 different compounds are pooled into one cassette and used for LC/MS/MS analysis.
All calculations are carried out using Microsoft Excel. Peak areas are determined from extracted ion chromatograms. In vitro intrinsic clearance (in vitro Clint, in μL/min/10^6 cells) of parent compound is determined by regression analysis of the Ln percent parent disappearance vs. time curve. The in vitro intrinsic clearance (in vitro Clint, in μL/min/10^6 cells) is determined from the slope value using the following equation and is shown in Table C:
V=incubation volume (0.25 mL);
N=number of hepatocytes per well (0.25×10 ^6 cells).

[2] = Human plasma protein binding, equilibrium dialysis (RED); type: in vitro ADME; conditions: dialysis for 18 hours
Experimental: Human Plasma Protein Binding
The automated equilibrium dialysis assay in human plasma uses the RED (Rapid Equilibrium Dialysis) Device and sample handling. The assay generally runs over two to three days including delivery of results. After dialysis for 18 hours, plasma and buffer samples are prepared for analysis by liquid chromatography and mass spectrometry. Samples are generally tested in singlicates and quantified by LC/MSMS by using a 7-point calibration curve in plasma. The compounds are pooled together in plasma pools up to 10 compounds. Three reference compounds are used in each run, Propranolol, Metoprolol and Warfarin. Warfarin is used as a control in each pool and Propranolol and Metoprolol are placed randomly in each run. An in-house Excel macro is used for preparation of files for the robot and the mass spectrometer and also used for the calculations of fraction unbound (fu %) in plasma.

[3] = logD shake flask, 1-octanol/aqueous buffer; type: physicochemical; conditions: pH 7.4
Text: The lipophilicity of a drug is an important physical property which may influence many biological and metabolic properties of a compound. The distribution coefficient between 1-octanol and aqueous buffer, Log DO/W, at pH 7.4, is the most commonly used measurement of the lipophilicity of a compound. The current method for measurement of Log DO/W is based on the traditional shake flask technique, but with the modification of measuring compounds in mixtures of ten at a time using UPLC with quantitative mass spectrometry (MS) as a method to measure the relative octanol and aqueous concentrations. […] An additional QC sample Caffeine, with low Log D, are used and randomly placed in all runs. The method has been thoroughly validated against the previous shake flask methodologies.

Row | SMILES | hepatocyte CLint at 1 µM [1] [µL/min/1e6 cells] | Human plasma protein binding (% free) [2] [% free] | logD [3]
1 | COc1cc(OCCN2CC(CF)C2)ccc1[C@@H]1c2ccc3[nH]ncc3c2C[C@@H](C)N1CC(C)(C)F [Example 5, (6S,8R)-7-(2-fluoro-2-methylpropyl)-6-(4-(2-(3-(fluoromethyl)azetidin-1-yl)ethoxy)-2-methoxyphenyl)-8-methyl-6,7,8,9-tetrahydro-3H-pyrazolo[4,3-f]isoquinoline] | 12 | 6.2 | 3.5
2 | COc1cc(OCCN2CC(CF)C2)ccc1[C@@H]1c2ccc3[nH]ncc3c2C[C@@H](C)N1CC1(F)CC1 [Example 6, (6S,8R)-7-((1-fluorocyclopropyl)methyl)-6-(4-(2-(3-(fluoromethyl)azetidin-1-yl)ethoxy)-2-methoxyphenyl)-8-methyl-6,7,8,9-tetrahydro-3H-pyrazolo[4,3-f]isoquinoline] | 7 | 21 | 2.8
3 | C[C@@H]1Cc2c(ccc3[nH]ncc23)[C@@H](c2ccc(OCCN3CC(CF)C3)cn2)N1CC1(F)CC1 [Example 8, (6S,8R)-7-((1-fluorocyclopropyl)methyl)-6-(5-(2-(3-(fluoromethyl)azetidin-1-yl)ethoxy)pyridin-2-yl)-8-methyl-6,7,8,9-tetrahydro-3H-pyrazolo[4,3-f]isoquinoline] | 8 | 34 | 2.6
4 | COc1cc(OCCN2CC(CF)C2)ccc1[C@@H]1c2ccc3[nH]ncc3c2C[C@@H](C)N1CC(C)C [Example 9, (6S,8R)-6-(4-(2-(3-(fluoromethyl)azetidin-1-yl)ethoxy)-2-methoxyphenyl)-7-isobutyl-8-methyl-6,7,8,9-tetrahydro-3H-pyrazolo[4,3-f]isoquinoline] | 3 | 52 | 2.4
5 | C[C@@H]1Cc2c(ccc3[nH]ncc23)[C@@H](c2ccc(OCCN3CC(CF)C3)cn2)N1CC(F)(F)F [Example 49, (6S,8R)-6-(5-(2-(3-(fluoromethyl)azetidin-1-yl)ethoxy)pyridin-2-yl)-8-methyl-7-(2,2,2-trifluoroethyl)-6,7,8,9-tetrahydro-3H-pyrazolo[4,3-f]isoquinoline] | 3 | 23 | 3
6 | C[C@@H]1Cc2c(ccc3[nH]ncc23)[C@@H](c2ccc(OCCN3CC(CF)C3)cn2)N1CC(F)F [Example 51, (6S,8R)-7-(2,2-difluoroethyl)-6-(5-(2-(3-(fluoromethyl)azetidin-1-yl)ethoxy)pyridin-2-yl)-8-methyl-6,7,8,9-tetrahydro-3H-pyrazolo[4,3-f]isoquinoline] | 5 | 49 | 2.4
